# Data as given in patent US6251897A, “6-phenyltetrahydro-1,3-oxazin-2-one derivative and pharmaceutical composition containing the same” (Nikken Chemicals Co., LTD, priority 1996, dated 2001).
# Tested on: Type IV PDE
# Experiment: PDE inhibitory activity, type IV isozyme (3H-cAMP hydrolysis)
# Type: biochemical
# Settings: partially purified from rat neutrophils, 30° C., 30 minutes
# Protocol: Type I, III, IV, and V PDE isozymes were prepared to study the PDE inhibitory activities and selectivities with the compound of the invention [Trends Pharmacol. Sci., 12, 19-27 (1992)]. Type I PDE was purchased from Sigma Corp. Type III, IV, and V PDE isozymes were partially purified from rats platelets (Type III and V) or neutrophils (Type IV). Each enzyme source was homogenized in a buffer (pH 6.5) containing 20 mM bisTris, 2 mM EDTA (ethylenediamine tetraacetate), 0.1 mM PMSF (phenylmethylsulfonyl fluoride), 5 mM 2-mercaptoethanol, 0.001 mM pepstatin, and 0.01 mM leupeptin and was centrifuged at 30,000×G for 30 minutes to obtain a supernatant, which was applied to an ion exchange column (Q-sepharose First Flow, Pharmacia Corp.) and was eluted with 0 to 1M sodium acetate. Partially purified isozymes were identified by observing the effects of conventional inhibitors.
# Each PDE isozyme and the test compound dissolved in DMSO (dimethyl sulfoxide) were added to 50 mM Tris-HCl buffer containing 5 mM magnesium chloride. ^3 H-cAMP (for type III and IV PDE) or ^3 H-cGMP (for type I and V PDE) were added as substrates and were reacted at 30° C. for 30 minutes. The reaction was terminated by placing the test tube in boiling water of 100° C. for 5 minutes. The nucleotides formed by PDE were broken down by 5'-nucleotidase to ^3 H-adenosine or ^3 H-guanosine. The unreacted substrate and reaction product were separated through an ion-exchange column (QAE sephadex, Pharmacia Corp.) The eluted ^3 H-nucleoside was measured for its radioactivity by a liquid scintillation counter. The inhibiting activities of the compound of the present invention are shown by the IC50 value (M). Further, the inhibitory activities of the test samples against Type I, III, and V are 1/10 or less than that against type IV.
row,Structure (SMILES),IC50 [nM]
1,"COc1ccc(C2CCN(Cc3cnccn3)C(=O)O2)cc1OC1CCCC1 (centres unmarked) [Compound No. 37, 6-(3-cyclopentyloxy-4-methoxyphenyl) -3-(2-pyrazinylmethyl)-3,4,5,6-tetrahydro-2H-1,3-oxazin-2-one]",4500
2,"COc1ccc(C2(c3cccnc3)CCNC(=O)O2)cc1OC1CCCC1 (centres unmarked) [Compound No. 36, 6-(3-cyclopentyloxy-4-methoxyphenyl)-6-(3-pyridyl)-3,4,5,6-tetrahydro-2H-1,3-oxazin-2-one]",1600
3,"CCC(CC)COc1cc(C2CCN(C)C(=O)O2)ccc1OC (centres unmarked) [Compound No. 70, 6-[3-(2-ethylbutoxy)-4-methoxyphenyl]-3-methyl-3,4,5,6-tetrahydro-2H-1,3-oxazin-2-one]",3500
4,"CCCCOc1cc(C2(C)CCNC(=O)O2)ccc1OC (centres unmarked) [Compound No. 52, 6-(3-butoxy-4-methoxyphenyl)-6-methyl-3,4,5,6-tetrahydro-2H-1,3-oxazin-2-one]",1400
5,"COc1ccc(C2(C)CCN(C)C(=O)O2)cc1OCCc1ccccc1 (centres unmarked) [Compound No. 48, 3. 6-dimethyl-6-(4-methoxy-3-phenethyloxyphenyl)-3,4,5,6-tetrahydro-2H-1,3-oxazin-2-one]",700
6,"CCCCC1(c2ccc(OC)c(OC3CCCC3)c2)CCNC(=O)O1 (centres unmarked) [Compound No. 30, 6-butyl-6-(3-cyclopentyloxy-4-methoxyphenyl)-3,4,5,6-tetrahydro-2H-1,3-oxazin-2-one]",9000
7,"COc1ccc(C2CCNC(=O)O2)cc1OCC1(C)CC1 (centres unmarked) [Compound No. 63, 6-[4-methoxy-3-[(1-methylcyclopropyl)methyloxy]phenyl]-3,4,5,6-tetrahydro-2H-1,3-oxazin-2-one]",3400
8,"COc1ccc(C2CCNC(=O)O2)cc1OCCOCc1ccccc1 (centres unmarked) [Compound No. 83, 6-[3-(2-benzyloxyethoxy)-4-methoxyphenyl]-3,4,5,6-tetrahydro-2H-1,3-oxazin-2-one]",3400
9,"COc1ccc(C2CCN(C)C(=O)O2)cc1OCCc1cccc2ccccc12 (centres unmarked) [Compound No. 68, 6-[4-methoxy-3-[2-(1-naphthyl)ethoxy]phenyl]-3-methyl-3,4,5,6-tetrahydro-2H-1,3-oxazin-2-one]",2600
10,"COc1ccc(C2CCNC(=O)O2)cc1OCCc1scnc1C (centres unmarked) [Compound No. 72, 6-[4-methoxy-3-[2-(4-methyl-5-thiazolyl)ethoxy]phenyl]-3,4,5,6-tetrahydro-2H-1,3-oxazin-2-one]",8300
11,"CCCCN1CCC(c2ccc(OC)c(OC3CCCC3)c2)OC1=O (centres unmarked) [Compound No. 17, 3-butyl-6-(3-cyclopentyloxy-4-methoxyphenyl)-3,4,5,6-tetrahydro-2H-1,3-oxazin-2-one]",2100
12,"COc1ccc(C2(c3cccs3)CCNC(=O)O2)cc1OC1CCCC1 (centres unmarked) [Compound No. 29, 6-(3-cyclopentyloxy-4-methoxyphenyl)-6-(2-thienyl)-3,4,5,6-tetrahydro-2H-1,3-oxazin-2-one]",3400
13,"COc1ccc(C2(C)CCN(C)C(=O)O2)cc1OCCCCCc1ccccc1 (centres unmarked) [Compound No. 47, 3,6-dimethyl-6-[4-methoxy-3-(5-phenylpentyloxy)phenyl]-3,4,5,6-tetrahydro-2H-1,3-oxazin-2-one]",220
14,"COc1ccc(C2CCN(C)C(=O)O2)cc1O[C@H]1CC[C@H](c2ccccc2)CC1 (relative stereo) [Compound No. 79, 6-[4-methoxy-3-(trans-4-phenylcyclohexyloxy)phenyl]-3-methyl-3,4,5,6-tetrahydro-2H-1,3-oxazin-2-one]",1200
15,"COc1ccc(C2CCN(Cc3ccc4ccccc4n3)C(=O)O2)cc1OC1CCCC1 (centres unmarked) [Compound No. 12, 6-(3-cyclopentyloxy-4-methoxyphenyl)-3-(2-quinolylmethyl)-3,4,5 6-tetrahydro-2H-1,3-oxazin-2-one]",73
16,"COc1ccc(C2OC(=O)NCC2(C)C)cc1OC1CCCC1 (centres unmarked) [Compound No. 85, 6-(3-cyclopentyloxy-4-methoxyphenyl)-5,5-dimethyl-3,4,5,6-tetrahydro-2H-1,3-oxazin-2-one]",780
17,"CCC(CC)COc1cc(C2CCNC(=O)O2)ccc1OC (centres unmarked) [Compound No. 69, 6-[3-(2-ethylbutoxy)-4-methoxyphenyl]-3,4,5,6-tetrahydro-2H-1,3-oxazin-2-one]",5000
18,"COc1ccc(C2CCN(C)C(=O)O2)cc1OCCCCCc1ccccc1 (centres unmarked) [Compound No. 42, 6-[4-methoxy-3-(5-phenylpentyloxy)phenyl]-3-methyl-3,4,5,6-tetrahydro-2H-1,3-oxazin-2-one]",1000
19,"COc1ccc(C2CCN(CCN3CCCCC3)C(=O)O2)cc1OC1CCCC1 (centres unmarked) [Compound No. 32, 6-(3-cyclopentyloxy-4-methoxyphenyl) -3-[2-(1-piperidyl)ethyl]-3,4,5,6-tetrahydro-2H-1,3-oxazin-2-one]",32000
20,"CCOC(=O)CN1CCC(c2ccc(OC)c(OC3CCCC3)c2)OC1=O (centres unmarked) [Compound No. 19, 6-(3-cyclopentyloxy-4-methoxyphenyl)-3-(ethoxycarbonylmethyl)-3,4,5,6-tetrahydro-2H-1,3-oxazin-2-one]",1800
21,"COc1ccc(C2CCN(Cc3ccc4ccccc4c3)C(=O)O2)cc1OC1CCCC1 (centres unmarked) [Compound No. 15, 6-(3-cyclopentyloxy-4-methoxyphenyl)-3-(2-naphthylmethyl)-3,4,5,6-tetrahydro-2H-1,3-oxazin-2-one]",980
22,"COc1ccc(C2OC(=O)NCC2(C)C)cc1OC1Cc2ccccc2C1 (centres unmarked) [Compound No. 87, 5,5-dimethyl-6-[3-(2-indanyloxy)-4-methoxyphenyl]-3,4,5,6-tetrahydro-2H-1,3-oxazin-2-one]",88
23,"COc1ccc(C2(c3ccccc3)CCNC(=O)O2)cc1OC1CCCC1 (centres unmarked) [Compound No. 7, 6-(3-cyclopentyloxy-4-methoxyphenyl)-6-phenyl-3,4,5,6-tetrahydro-2H-1,3-oxazin-2-one]",4300
24,"COc1ccc(C2CCN(Cc3cccs3)C(=O)O2)cc1OC1CCCC1 (centres unmarked) [Compound No. 38, 6-(3-cyclopentyloxy-4-methoxyphenyl)-3-(2-thienylmethyl)-3,4.56-tetrahydro-2H-1,3-oxazin-2-one]",2200
25,"CCCCOc1cc(C2CCN(C)C(=O)O2)ccc1OC (centres unmarked) [Compound No. 53, 6-(3-butoxy-4-methoxyphenyl)-3-methyl-3,4,5,6-tetrahydro-2H-1,3-oxazin-2-one]",9100
26,"COc1ccc(C2(c3ccccn3)CCNC(=O)O2)cc1OC1CCCC1 (centres unmarked) [Compound No. 39, 6-(3-cyclopentyloxy-4-methoxyphenyl)-6-(2-pyridyl)-3,4,5,6-tetrahydro-2H-1,3-oxazin-2-one]",18000
27,"COc1ccc(C2(c3nccs3)CCNC(=O)O2)cc1OC (centres unmarked) [Compound No. 27, 6-(3,4-dimethoxyphenyl)-6-(2-thiazolyl)-3,4,5,6-tetrahydro-2H-1,3-oxazin-2-one]",21000
28,"COc1ccc(C2(c3nccs3)CCNC(=O)O2)cc1OC1CCCC1 (centres unmarked) [Compound No. 31, 6-(3-cyclopentyloxy-4-methoxyphenyl)-6-(2-thiazolyl)-3,4,5,6-tetrahydro-2H-1,3-oxazin-2-one]",4600
29,"COc1ccc(C2(C)CCNC(=O)O2)cc1OCCCCCc1ccccc1 (centres unmarked) [Compound No. 45, 6-[4-methoxy-3-(5-phenylpentyloxy)phenyl]-6-methyl-3,4,5,6-tetrahydro-2H-1,3-oxazin-2-one]",260
